Assay results: US12491185B2, “Inhibitors of mPTP” (NRG Therapeutics Ltd, priority 2023, dated 2025)

Legend:
[1] = tested on: mPTP; experiment: mPTP activity (Ca2+ retention) assay in isolated rat liver mitochondria; format: biochemical; conditions: examples tested by different contract research organisations, believed comparable
Summary of the method: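 pIC50 was taken from Fluo5N fluorescence at 10 min after a 75 μM CaCl2 bolus, scaled between DMSO (0%) and 5 μM cyclosporin A (100%). Compounds, ten half-log concentrations from 30 μM to 1 nM final, sat 10 min at RT with fresh female Sprague Dawley rat liver mitochondria energized by succinate plus rotenone.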

[2] = tested on: mPTP; experiment: mPTP activity assay in isolated rat brain mitochondria; format: biochemical; conditions: fluorescence at 10 min timepoint
Method: MPTP activity was measured in brain mitochondria freshly isolated from female Sprague Dawley (250 to 300 gram) rats. Anaesthetised rats were perfused in-situ with −40 ml cold Dulbecco's Phosphate Buffered Saline (DPBS), then brains dissected and transferred into 30 ml Isolation Buffer (225 mM mannitol, 75 mM sucrose, 1 mM EGTA, adjusted to pH 7.4 with 1M NaOH). The brain was minced using tweezers and a scalpel into −5 mm pieces then transferred into a 50 ml Potterton Dounce homogenization tube on ice containing 10 ml ice-cold isolation buffer (as above with addition of Complete Protease inhibitor; 1 tablet per 50 ml buffer). Homogenisation was carried out using a teflon pestle at 1800 rpm. The slurry was centrifuged at 2000 g for 10 min at 4° C., then the supernatant centrifuged at 12,000 g for 9 min. The pellet was resuspended with a dounce homogeniser in isolation buffer as above but with the addition of 0.02% digitonin, centrifuged at 12,000 g for 11 min and finally resuspended in 5 ml modified isolation buffer (as above but with EGTA reduced to 0.1 mM).
Test compounds were prepared in 384 well polypropylene assay plates as described above for the liver mitochondria assay. A stock mitochondria/Fluo5N assay solution was prepared in 5.6 ml assay buffer (120 mM mannitol, 40 mM MOPS, 5 mM KH2PO4, 60 mM KCl, 10 mM pyruvate, 2 mM malate, 2 mM MgCl2, 20 μM ADP, 1.26 μM oligomycin A, adjusted to pH 7.4) supplemented with Fluo5N pentapotassium salt (2 μM) and 1 ml mitochondria suspension, then transferred (15 μl) into the assay plate containing test compounds and incubated for 10 min at RT. Assay plates were then transferred to a FLIPR Tetra plate reader (Molecular Devices). Dye fluorescence was then measured every 3 sec for a total of 10 min.

| mPTP Rat liver pIC50 [1] | mPTP Rat brain pIC50 [2] | SMILES |
| --- | --- | --- |
| 5.82 | 7.27 | CC(CNC(=O)c1noc(=O)[nH]1)(Cc1ccc(F)cc1)C1CC1 (single isomer, unassigned) [Example 276, N-(2-cyclopropyl-3-(4-fluorophenyl)-2-methylpropyl)-5-oxo-4,5-dihydro-1,2,4-oxadiazole-3-carboxamide] |
| 5.64 | 6.95 | O=C(NCC1(Cc2ccccc2)CCC1)c1cncc(O)n1 [Example 2, N-((1-benzylcyclobutyl)methyl)-6-hydroxypyrazine-2-carboxamide] |
| 6.02 | 6.89 | Cc1ncc(C(=O)NCC2(Cc3ccccc3)CCC2)cc1O [Example 3, N-((1-benzylcyclobutyl)methyl)-5-hydroxy-6-methylnicotinamide] |
| 5.77 | 6.56 | Cc1c(O)cncc1C(=O)NCC1(Cc2ccccc2)CCC1 [Example 4, N-((1-benzylcyclobutyl)methyl)-5-hydroxy-4-methylnicotinamide] |
| 5.61 | 6.72 | O=C(NCC1(Cc2ccccc2)CCC1)c1cnn[nH]1 [Example 5, N-((1-benzylcyclobutyl)methyl)-1H-1,2,3-triazole-5-carboxamide] |
| 5.97 | 7.42 | O=C(NCC1(Cc2ccccc2)CCC1)c1nccc(=O)[nH]1 [Example 7, N-((1-benzylcyclobutyl)methyl)-6-oxo-1,6-dihydropyrimidine-2-carboxamide] |
| 6.32 | 7.40 | O=C(NCC1(Cc2ccccc2)CCC1)c1nc(=O)[nH][nH]1 [Example 8, N-((1-benzylcyclobutyl)methyl)-5-oxo-2,5-dihydro-1H-1,2,4-triazole-3-carboxamide] |
| 6.14 | 7.33 | Cc1cnc(C(=O)NCC2(Cc3ccccc3)CCC2)[nH]c1=O [Example 9, N-((1-benzylcyclobutyl)methyl)-5-methyl-6-oxo-1,6-dihydropyrimidine-2-carboxamide] |
| 6.58 | 7.42 | Cn1nc(C(=O)NCC2(Cc3ccccc3)CCC2)[nH]c1=O [Example 10, N-((1-benzylcyclobutyl)methyl)-1-methyl-5-oxo-4,5-dihydro-1H-1,2,4-triazole-3-carboxamide] |
| 5.18 | 6.48 | CN(CC1(Cc2ccccc2)CCC1)C(=O)c1cncc(O)n1 [Example 11, N-((1-benzylcyclobutyl)methyl)-6-hydroxy-N-methylpyrazine-2-carboxamide] |
| 5.70 | 7.08 | CC(C)(CNC(=O)c1cncc(O)n1)Cc1ccccc1 [Example 12, N-(2,2-dimethyl-3-phenylpropyl)-6-hydroxypyrazine-2-carboxamide] |
| 5.63 | 6.94 | CCn1nc(C(=O)NCC2(Cc3ccccc3)CCC2)[nH]c1=O [Example 14, N-((1-benzylcyclobutyl)methyl)-1-ethyl-5-oxo-4,5-dihydro-1H-1,2,4-triazole-3-carboxamide] |
| 5.55 | 7.04 | O=C(NCC1(Cc2ccccc2)CCCC1)c1cncc(=O)[nH]1 [Example 18, N-((1-benzylcyclopentyl)methyl)-6-oxo-1,6-dihydropyrazine-2-carboxamide] |
| 5.41 | 7.35 | Cc1ccccc1CC1(CNC(=O)c2cncc(=O)[nH]2)CCC1 [Example 19, N-((1-(2-methylbenzyl)cyclobutyl)methyl)-6-oxo-1,6-dihydropyrazine-2-carboxamide] |
| 6.44 | 7.55 | Cn1nc(C(=O)NCC2(Cc3ccccc3F)CCC2)[nH]c1=O [Example 20, N-((1-(2-fluorobenzyl)cyclobutyl)methyl)-1-methyl-5-oxo-4,5-dihydro-1H-1,2,4-triazole-3-carboxamide] |
| 6.09 | 7.63 | Cn1nc(C(=O)NCC2(Cc3c(F)cccc3F)CCC2)[nH]c1=O [Example 21, N-((1-(2,6-difluorobenzyl)cyclobutyl)methyl)-1-methyl-5-oxo-4,5-dihydro-1H-1,2,4-triazole-3-carboxamide] |
| 6.64 | 7.37 | CC(NC(=O)c1nn(C)c(=O)[nH]1)C1(Cc2ccccc2)CCC1 (centres unmarked) [Example 23, N-(1-(1-benzylcyclobutyl)ethyl)-1-methyl-5-oxo-4,5-dihydro-1H-1,2,4-triazole-3 carboxamide] |
| 5.96 | 6.73 | COC(c1ccccc1)C1(CNC(=O)c2nn(C)c(=O)[nH]2)CCC1 (centres unmarked) [Example 28, N-((1-(methoxy(phenyl)methyl)cyclobutyl)methyl)-1-methyl-5-oxo-4,5-dihydro-1H-1,2,4-triazole-3-carboxamide] |
| 6.34 | 7.84 | Cc1ccccc1CC1(CNC(=O)c2nn(C)c(=O)[nH]2)CCC1 [Example 29, 1-methyl-N-((1-(2-methylbenzyl)cyclobutyl)methyl)-5-oxo-4,5-dihydro-1H-1,2,4-triazole-3-carboxamide] |
| 6.20 | 7.63 | Cn1nc(C(=O)NCC2(Cc3ccccc3Cl)CCC2)[nH]c1=O [Example 30, N-((1-(2-chlorobenzyl)cyclobutyl)methyl)-1-methyl-5-oxo-4,5-dihydro-1H-1,2,4-triazole-3-carboxamide] |
| 6.48 | 7.37 | Cn1nc(C(=O)NCC(C)(C)Cc2ccccc2)[nH]c1=O [Example 31, N-(2,2-dimethyl-3-phenylpropyl)-1-methyl-5-oxo-4,5-dihydro-1H-1,2,4-triazole-3-carboxamide] |
| 5.76 | 6.79 | CC(CNC(=O)c1nn(C)c(=O)[nH]1)Cc1ccccc1 (centres unmarked) [Example 32, 1-methyl-N-(2-methyl-3-phenylpropyl)-5-oxo-4,5-dihydro-1H-1,2,4-triazole-3-carboxamide] |
| 5.63 | 6.51 | Cn1nc(C(=O)NCC2(Cc3ccccc3)CC2)[nH]c1=O [Example 33, N-((1-benzylcyclopropyl)methyl)-1-methyl-5-oxo-4,5-dihydro-1H-1,2,4-triazole-3-carboxamide] |
| 5.82 | 7.32 | CCC(NC(=O)c1nn(C)c(=O)[nH]1)C(C)(C)Cc1ccccc1 (centres unmarked) [Example 34, N-(2,2-dimethyl-1-phenylpentan-3-yl)-1-methyl-5-oxo-4,5-dihydro-1H-1,2,4-triazole-3-carboxamide] |
| 5.23 | 6.86 | Cn1nc(C(=O)NC(C(F)(F)F)C(C)(C)Cc2ccccc2)[nH]c1=O (centres unmarked) [Example 35, 1-methyl-5-oxo-N-(1,1,1-trifluoro-3,3-dimethyl-4-phenylbutan-2-yl)-4,5-dihydro-1H-1,2,4-triazole-3-carboxamide] |
| 5.28 | 7.05 | Cn1nc(C(=O)NCC(C)(C)Cc2ccccc2Br)[nH]c1=O [Example 36, N-(3-(2-bromophenyl)-2,2-dimethylpropyl)-1-methyl-5-oxo-4,5-dihydro-1H-1,2,4-triazole-3-carboxamide] |

| SMILES | mPTP Rat liver pIC50 [1] | mPTP Rat brain pIC50 [2] |
| --- | --- | --- |
| O=C(NCC1(Cc2ccccc2)CCC1)c1cncc(O)c1 [Example 1, N-((1-benzylcyclobutyl)methyl)-5-hydroxynicotinamide] | 6.10 | 7.27 |
| O=C(NCC1(Cc2ccccc2F)CCC1)c1cncc(O)n1 [Example 13, N-((1-(2-fluorobenzyl)cyclobutyl)methyl)-6-hydroxypyrazine-2-carboxamide] | 5.33 | 7.74 |
| O=C(NCC1(Cc2c(F)cccc2F)CCC1)c1cncc(=O)[nH]1 [Example 15, N-((1-(2,6-difluorobenzyl)cyclobutyl)methyl)-6-oxo-1,6-dihydropyrazine-2-carboxamide] | 5.92 | 7.65 |
| O=C(NCC1(Cc2cccc(F)c2F)CCC1)c1cncc(=O)[nH]1 [Example 17, N-((1-(2,3-difluorobenzyl)cyclobutyl)methyl)-6-oxo-1,6-dihydropyrazine-2-carboxamide] | 6.05 | 6.96 |
| CC(c1ccccc1)C1(CNC(=O)c2nn(C)c(=O)[nH]2)CCC1 (centres unmarked) [Example 25, 1-methyl-5-oxo-N-((1-(1-phenylethyl)cyclobutyl)methyl)-4,5-dihydro-1H-1,2,4-triazole-3-carboxamide] | 6.42 | 7.37 |
